Assays:
[1] = tested on: DNA; assay: Binding affinity to calf thymus DNA at 1 uM in BPES buffer by fluorescence titration relative to daunomycin; type: nucleic-acid assay; settings: Bos taurus
[2] = tested on: DNA; assay: Binding affinity to calf thymus DNA in BPES buffer assessed as binding constant K/10^5 by fluorescence titration; type: nucleic-acid assay; settings: Bos taurus

Row | fold change (FC) [1] | K [2] [M⁻¹] | Structure (SMILES)
1 | 2 | 605000 | COc1cccc2c1C(=O)c1c(O)c3c(c(O)c1C2=O)C[C@@](O)(C(=O)CO)C[C@@H]3O[C@H]1C[C@H](N)[C@H](O)[C@H](C)O1
2 | – | 230000 | COc1cccc2c1C(=O)c1c(O)c3c(c(O)c1C2=O)C[C@@](O)(C(C)=O)C[C@@H]3O[C@H]1C[C@H](N)[C@H](O)[C@H](C)O1

— ChEMBL document CHEMBL1140110, “Hydration of drug-DNA complexes: greater water uptake for adriamycin compared to daunomycin” (J Med Chem, 2008)
